According to patent US20110230659A1, “CYCLOBUTYL PURINE DERIVATIVE, ANGIOGENESIS PROMOTING AGENT, LUMEN FORMATION PROMOTING AGENT, NEUROCYTE GROWTH PROMOTING AGENT, AND DRUG” (NATIONAL UNIVERSITY CORPORATION KAGAWA UNIVERSITY, priority 2008, published 2011):

Experiments:
ERK = ERK activation (phosphorylation) immunoblot in HUVEC; assay type: cell-based, human; conditions: for relative value (−fold) of pERK: 100 μmol/l
Description: First, to a HuMedia-EB2 medium (Kurabo) to which 2 v/v % inactivated fetal bovine serum (FBS) had been added, 2-Cl—C.OXT-A was added so that its concentration became 100 μmol/l. Thus, a medium was prepared. Using the medium, human umbilical vein endothelial cells (HUVEC) were cultured for predetermined periods (0, 10, 20, 30, 45, and 60 minutes).
After the culture, cells were collected. The collected cells were lysed by adding a cell lysis buffer (SDS-lysis buffer) thereto, and heat-denatured at 95° C. for 5 minutes. The solubilized protein in an amount corresponding to 5 v/v % of the heat-denatured cell lysate was subjected to electrophoresis using 10% SDS-polyacrylamide gel, whereby the solubilized protein was transferred onto a nitrocellulose membrane (Amersham Biosciences). To 20 ml of TBS-T having the following composition, skim milk (Wako) was added so that its concentration became 5%, thus preparing a blocking solution. The resultant nitrocellulose membrane was immersed in the blocking solution and shaken at room temperature for 1 hour.
(§1) Primary antibodies shown below were diluted 1000-fold by adding them to 5% bovine serum albumin (Sigma)-containing TBS-T, thus preparing a primary antibody solution. The nitrocellulose membrane after being subjected to the blocking was immersed in the primary antibody solution, and shaken at room temperature for 1 hour. The resultant nitrocellulose membrane was immersed in the TBS-T and washed by being shaken for 10 minutes. This washing operation was carried out three times in total.
as §1, with “Secondary” for “Primary”, “20000-fold” for “1000-fold”, “to” for “to 5% bovine serum albumin (Sigma)-containing”, “secondary” for “primary”, “having undergone” for “after being subjected to”, “reaction with the primary antibodies” for “blocking”
The enzymes were visualized with SuperSignal (registered trademark) West Pico Chemiluminescent Substrate (Pierce), and detected by being exposed to RX—U X-ray film (FUJIFILM Corporation). From the detected bands, the respective phosphoenzymes and total enzymes were quantified using an NIH image software. Furthermore, the relative value (−fold) of each phosphoenzyme was calculated by substituting the measured value of the phosphoenzyme into the following equation (III).
Relative value(−fold)of phosphoenzyme=(B/D)/(A/C) (III)
In the present example, the effect of 2-Cl—C.OXT-A of Example 1 and C.OXT-G of Comparative Example 2 on the activation (phosphorylation) of ERK was examined. In the present example, the amount of each enzyme was measured and the relative value (−fold) of each phosphoenzyme was calculated in the same manner as in Example 3, except that: a medium to which 2-Cl—C.OXT-A had been added so as to achieve predetermined concentrations (0, 10 and 100 μmol/l) and a medium to which 100 μmol/l C.OXT-G had been added were used; the culture period after the addition was set to 20 minutes: as the primary antibodies, only an anti-phospho ERK polyclonal antibody (Catalog No. 9101, Cell Signaling Technology) and an anti-total ERK monoclonal antibody (Catalog No. 610408, BD Transduction Laboratory) were used; as the secondary antibody for ERK, a sheep HRP-labeled anti-mouse IgG antibody (Pierce) was used; and as a secondary antibody of pERK, a sheep HRP-labeled anti-rabbit IgG antibody (Pierce) was used.
In the present example, the effect of PD98059 as an MEK inhibitor on the ERK activation (phosphorylation) by 2-Cl—C.OXT-A used in Example 1 was examined. […]

[1] = test system: rat adrenal medulla-derived cell line PC12; experiment: Differentiation of PC12 cells, morphological change (micrographs); assay type: cell-based; conditions: 2-Cl—C.OXT-A at 50 μmol/l and 100 μmol/l; sixth day of culture
Description: In the present example, using rat adrenal medulla-derived cell line PC12, which is neurocyte model cells, obtained from the RIKEN BioResource Center, the effect of 2-Cl—C.OXT-A of Example 1 on the differentiation of PC12 cells was examined.
(§2) Three samples were prepared by adding additives shown in Table 5 below to PBS so as to achieve predetermined concentrations. Also, an evaluation medium was prepared by adding each sample or PBS to DMEM (no serum) so that its concentration became 10 v/v %. Furthermore, as a control medium, a medium containing only DMEM (no serum) was prepared. […] On the sixth day of the culture, the cells were photographed under a microscope, and the AChE activity was measured according to the Ellman's method (Ellman, G. L., et al., Biochem. Pharmacol., 7, pp. 88-95, (1961)). Specifically, the AChE activity was measured in the following manner. […] The sample solution, 75 μl of 10 mmol/l DTNB, and 3.0 ml of 0.1 mol/l phosphate buffer solution (pH 8.0) were added to a […] for absorbance measurement, and finally, 50 μl of 100 mmol/l acetylthiocholine was added to cause a reaction. The absorbance of the reaction solution at 412 nm was measured for 5 minutes from immediately after the addition of the ace tylthiocholine. From the thus-measured absorbances, the amount of increase in absorbance (C) per minute was determined. […]

[2] = test system: rat adrenal medulla-derived cell line PC12; experiment: Differentiation of PC12 cells, AChE activity (Ellman's method); assay type: cell-based; conditions: 2-Cl—C.OXT-A 50 μmol/l and 100 μmol/l, sixth day of culture
Description: as §2, with “prepared. The PC12 cells were suspended at a density of 5×10^4 cells/ml in DMEM to which 5 v/v % cow serum and 10 v/v % horse serum had been added. Thus, a cell suspension was prepared. 3 ml of the cell suspension was inoculated into a 6 petri dish.” for “prepared.”

[3] = test system: cornea of Japanese white rabbit; experiment: Angiogenesis test, rabbit cornea assay; assay type: in vivo; conditions: 16 mmol/l in 30 μl of physiological saline injected to cornea, observed after 7 days
Description: In the present example, the effect of 2-Cl—C.OXT-A of Example 1 on angiogenesis was examined by a rabbit cornea assay.
A sample was prepared by adding 2-Cl—C.OXT-A to 30 μl of physiological saline so that its concentration became 16 mmol/l. The sample was injected to a cornea of Japanese white rabbit (male, 2.8 kg) under sevoflurane anesthesia. The cornea was observed after a lapse of 7 days.

Nc1nc(Cl)nc2c1ncn2C1CC(CO)C1CO (stereo not drawn) [2-Cl—C.OXT-A, 6-amino-2-chloro-9-[trans-trans-2,3-bis(hydroxymethyl)cyclobutyl]purine]
relative value (−fold) of pERK (ERK; Example 3, 20 minutes after the addition): about 11 fold | pERK, concentration dependence (ERK; Example 4, 0, 10 and 100 μmol/l, 20 minutes): increased in a manner dependent on the concentration | relative value (−fold) of pERK (ERK; Example 4, 20 minutes): about 10 fold | pERK (ERK; Example 6, medium No. 2: 2-Cl—C.OXT-A 100 μmol/l, no PD98059): increased | morphological change of PC12 cells (axon extension) [1]: cells from which linear axons extend were observed | AChE enzyme activity (relative value) [2]: increased | angiogenesis in the cornea [3]: considerable angiogenesis
